Reference: patent US6787356B1, “Cell expansion system for use in neural transplantation” (The United States of America as represented by the …, priority 1998, dated 2004)

Columns and labels:
[1] = test system: E12 mesencephalic precursors; experiment: Dopaminergic differentiation of long-term expanded mesencephalic precursors, TH-ir cell count per well; type: cell-based, rat; conditions: for effect of antioxidants on dopaminergic cell number: FIG. 5, FIG. 6
Method: Ascorbic acid was obtained from SIGMA (A-1417: Lot 105H0138) and used at various concentrations ranging from 1 nM-1 mM to obtain a dose-response curve. The effect of ascorbic acid on dopaminergic differentiation of long-term expanded mesencephalic precursors was tested during early and late proliferation as well as during cell differentiation.
Briefly, E12 mesencephalic precursors were proliferated for 12-14 days in vitro with 20 ng/ml bFGF (average expansion factor 40-200 fold) followed by 4-7 days of differentiation upon bFGF withdrawal and exposure to the various differentiation agents refers to the experimental assay in general. We tested the effects of many possible differentiation agents such as NGF, BDNF, NT3, NT4/5, GDNF, SHH, FGF8, interleukin1, Neurturin, cGMP and many others.
Cells were treated with 100 uM ascorbic acid. Ascorbic acid was dissolved in PBS with 0.1% bovine serum albumin at 100 mM stock solution. It was then used in 1:1000 dilution by adding it directly into the culture medium Cells were then fixed in 0.15% picric acid/4% paraformaldehyde and stained for tyrosine-hydroxylase (PelFreeze P40101-0). The number of TH-ir cells per well were scored using a stereological counting frame.
A dose response curve of the effect of stereoisomer D-iso-ascorbic acid was established using D-iso Ascorbic acid (I-0502 SIGMA). D-iso-ascorbic acid was used with the same protocol as L-ascorbic acid regarding stock solution, concentrations and mode of application. D-iso ascorbic acid has the same anti-oxydative properties but different other biological properties than ascorbic acid.

[2] = test system: expanded and differentiated mesencephalic precursors; experiment: KCl evoked dopamine release of differentiated expanded precursors, HPLC; type: cell-based, rat
Method: Tissue culture was prepared as described in Example 1. The growth medium of expanded precursors from 3 independent culture series was collected after 5-7 days of differentiation under serum-free conditions and immediately stabilized by adding 88 μl of 85% orthophosphoric acid and 4.4 mg of metabisulfite to each sample ml. Additional cultures of the same series were placed in 5 ml Hank's basic salt solution (HBSS) for […] at 37° C. either under basal conditions (HBSS only) or under stimulation with 56 mM KCl. 56 mM KCl was added to assay evoked release, i.e., dopamine release in response to depolarization by KCl (depolarization by KCl leads to release of synaptic vesicles in neurons). This provides a more specific test than release in HBSS where synaptic release is not directly tested.
Dopamine staining was carried out on cultures using dopamine polyclonal 1:500 (Chemicon). The cultures were fixed in 5% glutaraldehyde and 1% metabisulfite in Tris buffer and then kept in metabisulfite containing solutions prior to incubation in the secondary antibody. Dopamine was extracted by aluminum adsorption as described by Studer et al. (1996) Brain Res.Bull. 41, 143-150. […] No dopamine was detected in unconditioned control medium and HBSS.

[3] = test system: differentiated mesencephalic precursor culture; experiment: Oxidative stress assays (lipid peroxydation, H2O2, oxidative stress marker staining); type: cell-based, rat; conditions: data not shown
Method: Lipid peroxydation is a colorimetric assay (OXIS BIOXYTECH® LPO-568™; Oxis International Inc.) and was used according to the specifications of the manufacturer. H2O2 assay measures the conversion of 2′,7′ dicholorofluorescin diacetate (Molecular Probes d-399) into 2′,7′ dicholorofluorescin catalyzed by H2O2. The assay was performed according to the specifications of the manufacturer. Immunohistochemistry for oxidative stress markers by the DAB-peroxidase technique was performed on cells differentiated in the presence or absence of ascorbic acid, glutathione or […] plus ebselin.

[4] = test system: bFGF expanded precursor derived TH+ neurons; experiment: Dopamine release of precursor derived TH+ neurons, reverse phase HPLC with electrochemical detection; type: cell-based, rat; conditions: conditioned medium, buffer solution, buffer + 56 mM KCl; FIG. 7 and 8
Method: To test the biochemical function of precursor derived tyrosine hydroxylase expressing (TH+) neurons, the supernatant was tested for dopamine release using reverse phase HPLC with electrochemical detection. Dopamine levels were assessed in conditioned medium (24 hours of incubation), HBSS buffer (15 minutes), HBSS buffer +56 mM KCl. Dopamine was subsequently extracted by aluminum absorption and measured by reverse phase HPLC with electrochemical detection.

[5] = test system: mesencephalic precursors expanded with bFGF for 11 days; conditions: dopamine 1 nM-1 mM; cAMP 1 mM; DMEM/F12/N2
[6] = test system: ventral mesencephalon cells of E12 rat embryos; experiment: Tissue culture expansion of mesencephalic precursors with bFGF; type: cell-based; conditions: from 800×10^3 cells; 10-20 ng bFGF/ml medium daily; N=12
Method: Tissue was obtained from the ventral mesencephalon of E12 rat embryos (Sprague Dawley, plug day=day 0,) as described by Studer et al. in Current Protocols in Neuroscience (eds McKay, R. D. & Gerfen, C. R.) John Wiley & Sons Inc., New York, (1997).
Tissue pieces were spun in a centrifuge at 209 g for 5 minutes and mechanically triturated to a quasi single cell suspension in HBSS and counted. 5 ml of cell suspension at a concentration of 150-200×10^3 cells/ml was plated on a 10 cm culture dish containing DMEM/F12/N2 medium (Bottenstein, J. E. & Sato, G. H. Growth of a rat neuroblastoma cell line in serum-free supplemented medium. Proc.Natl.Acad.Sci.USA 76, 514-517 (1979) (modified according to Johe, K. K., Hazel, T. G., Müller, T., Dugich-Djordjevic, M. M. & McKay, R. D. G. Single factors direct the differentiation of stem cells from the fetal and adult central nervous system. Genes and Development 10, 3129-3140 (1996)) that had been previously coated with polyornithine (15 ug/ml) and fibronectin (1 ug/ml).
bFGF was added to the culture medium on a daily basis to a final concentration of 10-20 ng bFGF/ml medium. The medium was changed every other day.
Additionally, after treatment with bFGF all surviving cells were immunoreactive for the nestin intermediate filament a marker for immature neuroepithelial precursors. […]

[7] = test system: expanded mesencephalic precursors differentiated as free floating reaggregates; experiment: Reaggregation system (roller drum) differentiation, immunohistochemistry of reaggregates; type: cell-based, rat; conditions: for total number of TH-ir cells/sphere in serum-supplemented medium: GDNF, BDNF, NT4/5 10 ng/ml, SHH 2.5 μg/ml, data not shown
Method: Cells were cultured as described in Example 1 and differentiated as free floating aggregates in a medium containing 10% fetal bovine serum (FBS) and maintained in a roller drum system. The cell suspension (200,000 cells/ml) was distributed in 15 ml Falcon tubes (1 ml/tube) and placed in a roller drum (Bellco) and rotated at a speed of 1-4 revolutions per minute and a temperature of 37° C. in a dry incubator (no additional humidity) in an atmosphere containing 5% CO2.
Medium in all these experiments described in this section was Neurobasal/B27 as described above. We tested the effect of GDNF, BDNF, SHH in the presence and in the absence of 10% fetal bovine serum (always with Neurobasal/B27 medium as a “basal medium”)
After 7 days, the test tubes were removed from the roller drum and the reaggregation of the cells was examined immunohistochemistry after sectioning the cells (see below). […] Reaggregates were fixed in 4% paraformalehyde/0.15 picric acid in PBS for 30-60 minutes at room temperature, equilibrated in 30% sucrose, cut into 20 um thick sections on a freezing microtome and adhered to a gelatine precoated glass carrier according to standard histological guidelines.
The differentiation medium for reaggregate cultures consisted of Neurobasal®/2% B27® (Gibco, Life Technologies) with or without fetal bovine serum (FBS; 10%, Gibco), glial derived neurotrophic factor (GDNF; 10 ng/ml; Peprotech), brain derived neurotrophic factor (BDNF; 10 ng/ml; Peprotech), neurotrophin 4/5 (NT4/5; 10 ng/ml; Peprotech), SHH (2.5 μg/ml; kindly provided by Dr. Thomas Muller, at the Labrotory of Molecular Biology, currently at the Max Delbrueck Univ. in Berlin; SHH is now commercially avail. fro R&D).
Using standard immunohistochemical procedures known to those of skill in the art, the following antibodies were used to examine the neuronal phenotypes present in differentiated aggregates: GABA polyclonal 1:2000 (SIGMA), serotonin polyclonal 1:8000 (SIGMA), ChAT polyclonal 1:500 (Chemicon), GFAP polyclonal 1:100 (Chemicon), GalC monoclonal 1:50 (Boehringer-Mannheim),
Total graft volume was estimated using the Cavalieri's estimator as described by Gundersen et al. (1988) APIMS 96, 379-394. TH-ir cells were counted within the outlined graft area as used for volume estimation. Uniform randomly chosen sections of individual reaggregates were analyzed for the total number of TH-ir cells by means of a stereological grid (fractionator). Conventional and confocal images were obtained with Axiophot and Axiovert microscopes respectively (Zeiss). Confocal image stacks were acquired by single and dual wavelength excitation at 488 and 568 nm. […] The effect of serum and growth factors was analyzed using ANOVA and Dunnett posthoc comparisons. […]

Question: `CC(=O)N[C@H](CS)C(=O)O` [D-acetylcystein] was tested. Which “effect of antioxidants on dopaminergic cell number” value (“effect of antioxidants” below) [1] did it give?
Answer: Its value is “none of the antioxidants tested influenced dopaminergic cell number”.

Question: `O=C1O[C@H]([C@H](O)CO)C(O)=C1O` [D-iso ascorbic acid, D-iso-ascorbic acid] was tested. Which “number of dopaminergic neurons, lower than in the ascorbic acid group” value ([1]; optimum concentration of 100 μM) did it give?
Answer: Its value is 48%.

Question: `[Cl-].[K+]` [KCl] was tested. Which “increase in dopamine levels in the supernatant” value ([2]; 56 mM KCl in HBSS for 25 minutes vs HBSS only) did it give?
Answer: The value was 3-4 fold.

Question: What about the “dopamine level in the supernatant, evoked release” value ([2]; 56 mM KCl in HBSS for 25 minutes, N=3) of the same molecule?
Answer: The value was 572+/−145 pg dopamine/ml.

Question: With `O=C1O[C@H]([C@@H](O)CO)C(O)=C1O` [ascorbic acid] as the molecule, how does the “differences to control in lipid peroxydation, H2O2 levels and staining intensity for oxydative stress markers” value [3] read?
Answer: The value was “No significant differences”.

Question: What about the “yield of dopaminergic neurons compared with other differentiation agents tested” value ([1]; 100 uM, 12-14 days expansion, 4-7 days differentiation) of the same molecule?
Answer: Its value is “most effective agent of all agents tested”.

Question: What about the “effect on dopaminergic yield, treatment during cell differentiation (P1 diff.)” value ([1]; FIG. 6) of the same molecule?
Answer: The value was “acts mostly during the differentiation phase”.

Question: What about the “effect on dopaminergic yield, treatment during early expansion (Po exp.)” value ([1]; FIG. 6) of the same molecule?
Answer: The value was “small improvement in dopaminergic yield”.

Question: What about the “effect on dopaminergic yield, treatment during late expansion (P1 exp.)” value ([1]; FIG. 6) of the same molecule?
Answer: The value was “slightly negative effect”.

Question: And the “concentration of maximal effect on TH-ir cell number (dose-response)” value ([1]; during cell differentiation, range 1 nM-1 mM, FIG. 5)?
Answer: The value was 100 µM.

Question: What about the “dopamine levels after treatment, long-term expanded precursors (P1)” value [4] of the same molecule?
Answer: The value was “significant increase”.

Question: And the “dopamine levels after treatment, short term expanded precursors (Po)” value [4]?
Answer: The value was “significant increase”.

Question: With `NCCc1ccc(O)c(O)c1` [dopamine] as the molecule, how does the “additional effect on yield of dopaminergic neurons in combination with ascorbic acid (100 uM)” value [5] read?
Answer: Its value is “no significant additional effect”.

Question: Which “effect of antioxidants” value [1] does the source give for `O=c1c2ccccc2[se]n1-c1ccccc1` [ebselin] here?
Answer: Its value is “none of the antioxidants tested influenced dopaminergic cell number”.

Question: For `N[C@@H](CCC(=O)N[C@@H](CS)C(=O)NCC(=O)O)C(=O)O` [glutathione], which “effect of antioxidants” value [1] is on record?
Answer: Its value is “none of the antioxidants tested influenced dopaminergic cell number”.

Question: How did the “cell number after 1 week of treatment with bFGF” value [6] turn out when “bFGF: basic fibroblast growth factor, added to proliferating medium to expand precursor cells” was run?
Answer: Its value is 7,417×10^3+/−1,066×10^3 cells.

B1: GDNF: glial derived neurotrophic factor, Peprotech (protein, UniProt P39905 78-211, looked up)
Glial cell line-derived …: SPDKQMAVLPRRERNRQAAAANPENSRGKGRRGQRGKNRGCVLTAIHLNVTDLGLGYETKEELIFRYCSGSCDAAETTYDKILKNLSRNRRLVSDKVGQACCRPIAFDDDLSFLDDNLVYHILRKHSAKRCGCI
Question: With B1 as the molecule, how does the “TH-ir cell yield under serum-free conditions” value ([7]; GDNF 10 ng/ml, N=8, p<0.05 vs control) read?
Answer: Its value is 3451+/−621.

Question: What about the “total number of TH-ir cells/sphere in serum-supplemented medium” value (from here on “total number of TH-ir cells/sphere”) [7] of the same molecule?
Answer: The value was “did not cause a significant increase”.

B2: BDNF: brain derived neurotrophic factor, Peprotech (protein, UniProt P23560 19-247, looked up)
Neurotrophic factor BDNF …: APMKEANIRGQGGLAYPGVRTHGTLESVNGPKAGSRGLTSLADTFEHVIEELLDEDQKVRPNEENNKDADLYTSRVMLSSQVPLEPPLLFLLEEYKNYLDAANMSMRVRRHSDPARRGELSVCDSISEWVTAADKKTAVDMSGGTVTVLEKVPVSKGQLKQYFYETKCNPMGYTKEGCRGIDKRHWNSQCRTTQSYVRALTMDSKKRIGWRFIRIDTSCVCTLTIKRGR
Question: B2 was tested. Which “total number of TH-ir cells/sphere” value [7] did it give?
Answer: The value was “did not cause a significant increase”.

B3: NT4/5: neurotrophin 4/5, Peprotech (protein, UniProt P34130 81-210, looked up)
Neurotrophin-4: GVSETAPASRRGELAVCDAVSGWVTDRRTAVDLRGREVEVLGEVPAAGGSPLRQYFFETRCKADNAEEGGPGAGGGGCRGVDRRHWVSECKAKQSYVRALTADAQGRVGWRWIRIDTACVCTLLSRTGRA
Question: B3 was tested. Which “total number of TH-ir cells/sphere” value [7] did it give?
Answer: The value was “did not cause a significant increase”.
